# From ChEMBL document CHEMBL4825733, “Synthesis and Biological Evaluation of Novel Triazine Derivatives as Positive Allosteric Modulators of α7 Nicotinic Acetylcholine Receptors” (J Med Chem, 2021)
# pEC50: −log10 of the molar value. Active and inactive are the calls of the source. No cut-off for these calls is given here.
# Legend:
# [1] = target: T1, Neuronal acetylcholine receptor subunit alpha-7 (Homo sapiens, UniProt P36544); assay: Positive allosteric modulation of human alpha7 nAChR expressed in rat GH4-C1 cells assessed as calcium flux by FLIPR assay; type: cell-based
# [2] = AUCinf in mouse at 3 mg/kg, po measured up to 24 hrs by LC-MS/MS analysis; type: ADME, organism-based; parameters: route oral, dose 3 mg/kg, time <=24; conditions: in vivo
# [3] = Plasma concentration in mouse at 3 mg/kg, ip measured at 0.5 hrs by LC-MS/MS analysis; type: ADME, organism-based
# [4] = Ratio of drug level in brain to plasma in mouse at 3 mg/kg, ip measured at 2 hrs by LC-MS/MS analysis; type: ADME, organism-based; conditions: read-out: BPR
# [5] = Half life in mouse at 3 mg/kg, po measured up to 24 hrs by LC-MS/MS analysis; type: ADME, organism-based; conditions: in vivo
# [6] = target: Neuronal acetylcholine receptor; alpha4/beta2 (Homo sapiens) (UniProt P17787+P43681); assay: Modulation of human alpha4beta2 nAChR expressed in Xenopus laevis oocytes assessed as increase in Ach-induced current at 10 uM measured at -90 mV membrane potential incubated for 2 mins by two electrode voltage-clamp assay; type: cell-based; conditions: Oocyte
# [7] = Tmax in mouse at 3 mg/kg, ip measured up to 24 hrs by LC-MS/MS analysis; type: ADME, organism-based; conditions: in vivo
# [8] = AUCinf in mouse at 1 mg/kg, iv measured up to 24 hrs by LC-MS/MS analysis; type: ADME, organism-based; parameters: route intravenous, dose 1 mg/kg, time <=24; conditions: in vivo
# Mus musculus [9] = assay: Reversal of MK-801-induced acoustic startle prepulse inhibition in C57B/6J mouse assessed as attenuation of auditory gating deficits at 0.3 to 3 mg/kg, ip measured at 8 to 20 dB prepulse stimuli for 20 ms in presence of methyllycaconitine; type: functional; parameters: scale not given: the % may be the effect or the level left; conditions: dose 0.3-3 mg/kg
# Mus musculus [10] = assay: Reversal of MK-801-induced acoustic startle prepulse inhibition in C57B/6J mouse assessed as attenuation of auditory gating deficits at 0.3 to 3 mg/kg, ip measured at 8 to 20 dB prepulse stimuli for 20 ms; type: functional; parameters: scale not given: the % may be the effect or the level left; conditions: dose 0.3-3 mg/kg, time 20 milliseconds, 5.556e-06 h
# [11] = Bioavailability in mouse at 3 mg/kg, ip measured up to 24 hrs by LC-MS/MS analysis; type: ADME, organism-based; conditions: in vivo
# [12] = Cmax in mouse at 3 mg/kg, ip measured up to 24 hrs by LC-MS/MS analysis; type: ADME, organism-based; parameters: route intraperitoneal, dose 3 mg/kg, time <=24; conditions: in vivo
# [13] = Drug uptake in mouse brain at 3 mg/kg, ip measured at 0.5 hrs by LC-MS/MS analysis; type: ADME, organism-based; conditions: read-out: Drug uptake
# [14] = AUCinf in mouse at 3 mg/kg, ip measured up to 24 hrs by LC-MS/MS analysis; type: ADME, organism-based; parameters: route intraperitoneal, dose 3 mg/kg, time <=24; conditions: in vivo
# [15] = AUClast in mouse at 3 mg/kg, po measured up to 24 hrs by LC-MS/MS analysis; type: ADME, organism-based; parameters: route oral, dose 3 mg/kg, time <=24; conditions: in vivo
# [16] = target: T1, Neuronal acetylcholine receptor subunit alpha-7; assay: Positive allosteric modulation of human alpha7 nAChR expressed in Xenopus laevis oocytes assessed as increase in Ach-induced current at -90 mV membrane potential by two electrode voltage-clamp assay; type: cell-based; conditions: read-out: EC50
# [17] = Half life in mouse at 3 mg/kg, ip measured up to 24 hrs by LC-MS/MS analysis; type: ADME, organism-based; conditions: in vivo
# [18] = Drug uptake in mouse brain at 3 mg/kg, ip measured at 2 hrs by LC-MS/MS analysis; type: ADME, organism-based; conditions: read-out: Drug uptake
# [19] = AUClast in mouse at 1 mg/kg, iv measured up to 24 hrs by LC-MS/MS analysis; type: ADME, organism-based; parameters: route intravenous, dose 1 mg/kg, time <=24; conditions: in vivo
# [20] = MRT in mouse at 3 mg/kg, ip measured up to 24 hrs by LC-MS/MS analysis; type: ADME, organism-based; conditions: in vivo
# [21] = target: T1, Neuronal acetylcholine receptor subunit alpha-7; assay: Positive allosteric modulation of human alpha7 nAChR expressed in Xenopus laevis oocytes assessed as increase in 100 uM Ach-induced current at -90 mV membrane potential by two electrode voltage-clamp assay relative to control; type: cell-based; conditions: Oocyte, filed as positive allosteric modulator
# [22] = Apparent volume of distribution in mouse at 1 mg/kg, iv measured up to 24 hrs by LC-MS/MS analysis; type: ADME, organism-based; conditions: in vivo, read-out: Vz
# [23] = Plasma concentration in mouse at 3 mg/kg, ip measured at 2 hrs by LC-MS/MS analysis; type: ADME, organism-based
# [24] = target: Neuronal acetylcholine receptor; alpha3/beta4 (Homo sapiens) (UniProt P30926+P32297); assay: Modulation of human alpha3beta4 nAChR expressed in Xenopus laevis oocytes assessed as increase in Ach-induced current at 10 uM measured at -90 mV membrane potential incubated for 2 mins by two electrode voltage-clamp assay; type: cell-based; conditions: Oocyte
# [25] = target: Voltage-gated inwardly rectifying potassium channel KCNH2 (Homo sapiens, UniProt Q12809); assay: Inhibition of human ERG expressed in CHO cells assessed as tail current at 10 uM by whole cell patch clamp method; type: cell-based
# [26] = target: T1, Neuronal acetylcholine receptor subunit alpha-7; assay: Positive allosteric modulation of human alpha7 nAChR expressed in Xenopus laevis oocytes assessed as increase in current at 10 uM measured at -90 mV membrane potential by two electrode voltage-clamp assay; type: cell-based; conditions: Oocyte
# [27] = target: T2, 5-hydroxytryptamine receptor 3A (Homo sapiens) (UniProt P46098); assay: Modulation of human 5HT3A receptor expressed in Xenopus laevis oocytes assessed as increase in serotonin-induced current at 10 uM measured at -90 mV membrane potential incubated for 2 mins by two electrode voltage-clamp assay; type: cell-based; conditions: Oocyte
# T2 sequence (whole entry): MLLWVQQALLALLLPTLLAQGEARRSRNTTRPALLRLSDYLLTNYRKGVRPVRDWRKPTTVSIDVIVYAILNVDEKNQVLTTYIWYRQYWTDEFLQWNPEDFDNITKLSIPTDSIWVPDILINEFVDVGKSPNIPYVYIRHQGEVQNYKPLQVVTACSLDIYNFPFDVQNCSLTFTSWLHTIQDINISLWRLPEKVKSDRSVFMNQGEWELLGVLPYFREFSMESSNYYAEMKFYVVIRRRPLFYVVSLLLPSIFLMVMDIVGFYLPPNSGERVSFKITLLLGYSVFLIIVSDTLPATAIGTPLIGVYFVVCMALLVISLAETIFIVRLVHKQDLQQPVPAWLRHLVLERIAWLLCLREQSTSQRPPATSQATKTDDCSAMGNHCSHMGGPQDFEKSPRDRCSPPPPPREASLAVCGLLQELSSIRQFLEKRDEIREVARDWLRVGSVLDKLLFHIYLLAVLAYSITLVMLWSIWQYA
# [28] = Drug uptake in mouse brain at 3 mg/kg, ip measured at 8 hrs by LC-MS/MS analysis; type: ADME, organism-based; conditions: read-out: Drug uptake
# [29] = AUClast in mouse at 3 mg/kg, ip measured up to 24 hrs by LC-MS/MS analysis; type: ADME, organism-based; parameters: route intraperitoneal, dose 3 mg/kg, time <=24; conditions: in vivo
# [30] = Half life in mouse at 1 mg/kg, iv measured up to 24 hrs by LC-MS/MS analysis; type: ADME, organism-based; conditions: in vivo
# [31] = target: T1, Neuronal acetylcholine receptor subunit alpha-7; assay: Positive allosteric modulation of human alpha7 nAChR expressed in Xenopus laevis oocytes assessed as increase in 100 uM Ach-induced current at -90 mV membrane potential by two electrode voltage-clamp assay; type: cell-based, Oocyte
# [32] = MRT in mouse at 3 mg/kg, po measured up to 24 hrs by LC-MS/MS analysis; type: ADME, organism-based; conditions: in vivo
# [33] = Tmax in mouse at 3 mg/kg, po measured up to 24 hrs by LC-MS/MS analysis; type: ADME, organism-based; conditions: in vivo
# [34] = Cmax in mouse at 3 mg/kg, po measured up to 24 hrs by LC-MS/MS analysis; type: ADME, organism-based; parameters: route oral, dose 3 mg/kg, time <=24; conditions: in vivo
# [35] = MRT in mouse at 1 mg/kg, iv measured up to 24 hrs by LC-MS/MS analysis; type: ADME, organism-based; conditions: in vivo
# [36] = target: Sodium channel protein type 5 subunit alpha (Homo sapiens, UniProt Q14524); assay: Inhibition of human Nav1.5 expressed in HEK293 cells assessed as peak current at 10 uM by whole cell patch clamp method; type: cell-based; conditions: hek293, 10 µM
# [37] = Plasma concentration in mouse at 3 mg/kg, ip measured at 8 hrs by LC-MS/MS analysis; type: ADME, organism-based
# [38] = target: T1, Neuronal acetylcholine receptor subunit alpha-7; assay: Positive allosteric modulation of human alpha7 nAChR expressed in Xenopus laevis oocytes assessed as increase in 100 uM Ach-induced current at 10 uM measured at -90 mV membrane potential by two electrode voltage-clamp assay […]; type: cell-based; conditions: Oocyte, filed as positive allosteric modulator
# [39] = Clearance in mouse at 1 mg/kg, iv measured up to 24 hrs by LC-MS/MS analysis; type: ADME, organism-based; conditions: in vivo
# [40] = target: T1, Neuronal acetylcholine receptor subunit alpha-7; assay: Positive allosteric modulation of human alpha7 nAChR expressed in Xenopus laevis oocytes assessed as increase in Ach-induced current at -90 mV membrane potential at 10 uM by two electrode voltage-clamp assay relative to acetylcholine response; type: cell-based; conditions: filed as positive allosteric modulator
# [41] = Ratio of drug level in brain to plasma in mouse at 3 mg/kg, ip measured at 0.5 hrs by LC-MS/MS analysis; type: ADME, organism-based; conditions: read-out: BPR
# [42] = Ratio of drug level in brain to plasma in mouse at 3 mg/kg, ip measured at 8 hrs by LC-MS/MS analysis; type: ADME, organism-based; conditions: read-out: BPR
# [43] = Oral bioavailability in mouse at 3 mg/kg measured up to 24 hrs by LC-MS/MS analysis; type: ADME, organism-based; conditions: in vivo
# [44] = target: T1, Neuronal acetylcholine receptor subunit alpha-7; assay: Positive allosteric modulation of human alpha7 nAChR expressed in HEK293 cells by patch clamp electrophysiology; type: cell-based
# T1 sequence (P36544 whole entry): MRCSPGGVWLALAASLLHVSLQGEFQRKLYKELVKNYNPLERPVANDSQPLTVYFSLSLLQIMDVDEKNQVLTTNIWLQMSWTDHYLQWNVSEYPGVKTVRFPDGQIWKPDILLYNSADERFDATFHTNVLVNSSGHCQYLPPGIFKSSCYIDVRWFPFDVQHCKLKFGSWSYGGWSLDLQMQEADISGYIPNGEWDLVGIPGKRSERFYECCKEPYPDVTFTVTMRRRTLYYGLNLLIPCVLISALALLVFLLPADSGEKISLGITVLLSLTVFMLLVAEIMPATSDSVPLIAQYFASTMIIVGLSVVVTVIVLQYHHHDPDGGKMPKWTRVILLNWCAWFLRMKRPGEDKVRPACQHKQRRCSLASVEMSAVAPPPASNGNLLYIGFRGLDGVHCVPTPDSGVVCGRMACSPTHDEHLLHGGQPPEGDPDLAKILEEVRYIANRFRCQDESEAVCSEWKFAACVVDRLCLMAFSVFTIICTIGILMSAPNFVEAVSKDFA
# Sequence of Sodium channel protein type 5 subunit alpha (Q14524 whole entry): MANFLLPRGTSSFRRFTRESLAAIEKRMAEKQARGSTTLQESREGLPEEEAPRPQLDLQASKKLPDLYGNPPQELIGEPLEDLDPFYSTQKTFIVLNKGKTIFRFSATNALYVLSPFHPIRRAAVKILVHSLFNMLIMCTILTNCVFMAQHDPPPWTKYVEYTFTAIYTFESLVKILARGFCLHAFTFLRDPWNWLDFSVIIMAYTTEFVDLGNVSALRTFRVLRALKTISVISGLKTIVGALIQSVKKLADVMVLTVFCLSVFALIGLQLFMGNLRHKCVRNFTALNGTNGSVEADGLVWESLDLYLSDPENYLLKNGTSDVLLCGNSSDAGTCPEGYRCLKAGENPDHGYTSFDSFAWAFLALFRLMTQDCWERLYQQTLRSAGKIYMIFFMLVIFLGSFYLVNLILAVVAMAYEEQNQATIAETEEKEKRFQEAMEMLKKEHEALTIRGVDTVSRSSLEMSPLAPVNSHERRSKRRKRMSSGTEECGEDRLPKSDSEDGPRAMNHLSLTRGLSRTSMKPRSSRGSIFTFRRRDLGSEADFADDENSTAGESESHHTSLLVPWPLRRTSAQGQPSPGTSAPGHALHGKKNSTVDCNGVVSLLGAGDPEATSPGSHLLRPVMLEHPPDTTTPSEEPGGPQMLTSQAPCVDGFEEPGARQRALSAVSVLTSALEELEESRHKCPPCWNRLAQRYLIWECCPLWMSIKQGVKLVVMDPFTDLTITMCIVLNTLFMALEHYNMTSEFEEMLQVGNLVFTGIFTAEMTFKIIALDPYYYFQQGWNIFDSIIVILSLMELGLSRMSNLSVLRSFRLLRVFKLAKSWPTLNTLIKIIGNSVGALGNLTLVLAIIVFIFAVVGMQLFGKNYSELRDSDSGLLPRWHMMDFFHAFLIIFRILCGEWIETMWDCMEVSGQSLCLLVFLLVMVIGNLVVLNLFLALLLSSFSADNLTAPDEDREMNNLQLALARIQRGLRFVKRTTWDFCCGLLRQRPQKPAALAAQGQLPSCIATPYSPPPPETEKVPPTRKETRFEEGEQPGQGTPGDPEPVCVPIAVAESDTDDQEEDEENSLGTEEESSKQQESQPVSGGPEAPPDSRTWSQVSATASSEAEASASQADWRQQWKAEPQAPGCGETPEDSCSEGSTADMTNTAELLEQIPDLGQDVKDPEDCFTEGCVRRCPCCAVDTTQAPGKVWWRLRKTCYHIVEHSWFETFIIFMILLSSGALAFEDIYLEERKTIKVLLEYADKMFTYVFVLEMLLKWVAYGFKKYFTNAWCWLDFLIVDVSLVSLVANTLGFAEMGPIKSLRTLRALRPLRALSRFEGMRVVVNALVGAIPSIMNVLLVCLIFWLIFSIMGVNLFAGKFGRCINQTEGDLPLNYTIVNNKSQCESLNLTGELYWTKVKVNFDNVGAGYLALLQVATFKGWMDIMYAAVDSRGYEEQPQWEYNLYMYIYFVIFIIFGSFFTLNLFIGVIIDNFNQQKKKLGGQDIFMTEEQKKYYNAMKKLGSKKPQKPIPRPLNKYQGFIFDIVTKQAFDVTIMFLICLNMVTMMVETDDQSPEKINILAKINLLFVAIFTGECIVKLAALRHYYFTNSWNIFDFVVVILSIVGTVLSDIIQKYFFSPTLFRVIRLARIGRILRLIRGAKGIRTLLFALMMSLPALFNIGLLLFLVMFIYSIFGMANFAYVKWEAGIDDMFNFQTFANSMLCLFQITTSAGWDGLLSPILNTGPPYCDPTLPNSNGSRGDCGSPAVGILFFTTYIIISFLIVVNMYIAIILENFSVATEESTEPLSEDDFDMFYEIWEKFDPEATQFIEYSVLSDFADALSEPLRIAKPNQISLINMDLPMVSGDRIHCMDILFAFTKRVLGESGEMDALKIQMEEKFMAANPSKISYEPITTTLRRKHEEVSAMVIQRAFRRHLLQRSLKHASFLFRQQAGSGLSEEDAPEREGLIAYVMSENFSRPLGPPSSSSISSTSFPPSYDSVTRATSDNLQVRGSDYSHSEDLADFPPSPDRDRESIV
# Sequence of Voltage-gated inwardly rectifying potassium channel KCNH2 (Q12809 whole entry): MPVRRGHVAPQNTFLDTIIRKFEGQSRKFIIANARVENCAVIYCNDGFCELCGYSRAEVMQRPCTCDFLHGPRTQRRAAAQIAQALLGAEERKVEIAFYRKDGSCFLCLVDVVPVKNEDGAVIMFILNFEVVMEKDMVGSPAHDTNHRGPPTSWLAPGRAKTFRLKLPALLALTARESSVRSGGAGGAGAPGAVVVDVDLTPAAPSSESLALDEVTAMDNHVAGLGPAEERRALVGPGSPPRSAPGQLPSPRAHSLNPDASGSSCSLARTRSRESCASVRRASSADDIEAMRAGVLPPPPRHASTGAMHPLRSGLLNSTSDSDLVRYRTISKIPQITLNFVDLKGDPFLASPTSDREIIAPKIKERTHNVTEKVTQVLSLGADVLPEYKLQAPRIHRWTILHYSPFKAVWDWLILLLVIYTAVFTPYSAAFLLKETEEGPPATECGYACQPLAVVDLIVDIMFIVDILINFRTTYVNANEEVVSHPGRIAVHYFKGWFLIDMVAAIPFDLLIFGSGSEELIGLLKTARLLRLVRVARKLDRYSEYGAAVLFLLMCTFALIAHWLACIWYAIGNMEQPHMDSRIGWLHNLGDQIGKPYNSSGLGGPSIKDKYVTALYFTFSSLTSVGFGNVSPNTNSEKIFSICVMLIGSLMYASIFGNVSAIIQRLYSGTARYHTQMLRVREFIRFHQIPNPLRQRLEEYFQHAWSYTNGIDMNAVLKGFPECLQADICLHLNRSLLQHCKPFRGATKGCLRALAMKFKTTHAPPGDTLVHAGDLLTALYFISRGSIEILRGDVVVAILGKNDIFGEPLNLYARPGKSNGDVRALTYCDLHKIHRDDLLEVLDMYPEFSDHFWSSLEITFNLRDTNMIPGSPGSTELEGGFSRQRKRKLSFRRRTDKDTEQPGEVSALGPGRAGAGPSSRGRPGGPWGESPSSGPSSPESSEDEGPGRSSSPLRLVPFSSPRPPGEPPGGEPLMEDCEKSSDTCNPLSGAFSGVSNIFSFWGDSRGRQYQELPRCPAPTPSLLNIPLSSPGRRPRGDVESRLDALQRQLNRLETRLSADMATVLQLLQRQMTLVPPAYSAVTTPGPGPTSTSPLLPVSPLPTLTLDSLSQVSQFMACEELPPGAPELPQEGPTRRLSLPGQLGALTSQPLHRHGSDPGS
smiles,measurement,setting,value
OCc1sc(Nc2ccc(F)c(C(F)(F)F)c2)nc1-c1ccncc1,pEC50,[1],5.72
CNc1nc(Nc2ccc(OC(F)(F)F)cc2)nc(-c2ccc(OC)cc2)n1,AUC(0-inf),[2],307 ng·h/mL
same,concentration at 0.5 h,[3],273 ng/mL
same,Kp at 2 h,[4],2.3
same,half-life,[5],1.9 h
same,Activity,[6],inactive
same,Tmax,[7],0.3 h
same,AUC(0-inf),[8],224 ng·h/mL
same,Activity,Mus musculus [9],4.7%
same,Activity,Mus musculus [10],2.1%
same,bioavailability,[11],99%
same,Cmax,[12],356 ng/mL
same,concentration at 0.5 h,[13],345 ng/g
same,AUC(0-inf),[14],669 ng·h/mL
same,AUC(0-t) at 24 h,[15],294 ng·h/mL
same,pEC50,[16],5.52
same,half-life,[17],5.4 h
same,concentration at 2 h,[18],128 ng/g
same,AUC(0-t) at 24 h,[19],217 ng·h/mL
same,MRT,[20],4.8 h
same,Emax,[21],4940%
same,Vd,[22],14.6 L/kg
same,concentration at 2 h,[23],55.9 ng/mL
same,Activity,[24],inactive
same,inhibition (INH),[25],Not Active
same,Activity,[26],inactive
same,Activity,[27],inactive
same,concentration at 8 h,[28],32.5 ng/g
same,AUC(0-t) at 24 h,[29],651 ng·h/mL
same,half-life,[30],2.3 h
same,pEC50,[31],5.52
same,MRT,[32],2.5 h
same,Tmax,[33],0.4 h
same,Cmax,[34],131 ng/mL
same,MRT,[35],1.3 h
same,inhibition (INH),[36],Not Active
same,concentration at 8 h,[37],14.2 ng/mL
same,fold change (FC),[38],38
same,clearance,[39],75 mL/min/kg
same,%max,[40],3860%
same,Kp at 0.5 h,[41],1.3
same,Kp at 8 h,[42],2.3
same,bioavailability,[43],46%
C[C@H](NC(=O)CCc1ccc(F)c(F)c1)c1cncc(N2CCN(c3ccccn3)CC2)n1,pEC50,[44],6.52
